# Data as given in patent EP0246786A1, “N-1 subsituted sulfonylaminocarbonyl, C-4 substituted monobactams” (THE UPJOHN COMPANY, priority 1986, dated 1987).
# Where a name gives a salt, the structure may show the parent alone. Read-outs that look alike come from different tables or passages of the source.
# Experiments:
# Assay in all cases: MIC by agar dilution (in vitro antimicrobial testing)
# Format in all cases: cell-based
# K.pneumoniae = settings: Klebsiella pneumoniae, read-out: Minimum Inhibitory Concentration
# Procedure: (§1) Compounds of the invention are tested for in vitro antimicrobial activity using standard testing procedures such as the determination of minimum inhibitory concentration (MIC) by agar dilution as described in "Methods for Dilution Antimicrobial Susceptibility Tests for Bacteria That Grow Aerobically" (MF-T) Published January 1983 by the National Committee for Clinical Laboratory Standards, 771 East Lancaster Avenue, Villanova, PA 19084. Briefly, MIC values are determined in unsupple- mented Mueller Hinton Agar (MHA). The compounds tested are diluted serially into molten MHA at 47°C. The agar is poured into petri dishes and allowed to harden. The various bacteria used for testing are grown overnight on MHA at 35°C and transferred to Tryptiease Soy Broth (TSB) until a turbidity of 0.5 McFarland standard is obtained. The bacteria are diluted one to twenty in TSB and inoculated on the plates (1 µl using a Steers replicator).
# K. oxytoca = settings: Klebsiella oxytoca, read-out: Minimum Inhibitory Concentration
# Procedure: as §1
# E. coli = settings: Escherichia coli, 20 h, 35°C, read-out: Minimum Inhibitory Concentration
# Procedure: as §1
# Ps. aeruginosa = settings: Pseudomonas aeruginosa, 20 h, 35°C, read-out: Minimum Inhibitory Concentration
# Procedure: as §1
# [1] = E. coli Culture No. 9379, Mueller Hinton Agar
# [2] = E. coli Culture No. 9380, Mueller Hinton Agar
# [3] = E. coli Culture No. 9451, Mueller Hinton Agar
# [4] = Ps. aeruginosa Culture No. 231, Mueller Hinton Agar
# [5] = Ps. aeruginosa Culture No. 6432, Mueller Hinton Agar
# [6] = Ps. aeruginosa Culture No. 9191, Mueller Hinton Agar
Compound,"MIC (K.pneumoniae; K.pneumoniae Culture No. 58, Mueller Hinton Agar, 35°C, 20 hours)","MIC (K. oxytoca; K. oxytoca Culture No. 9384, Mueller Hinton Agar, 35°C, 20 hours)",MIC (E. coli; [1]),MIC (E. coli; [2]),MIC (E. coli; [3]),MIC (Ps. aeruginosa; [4]),MIC (Ps. aeruginosa; [5]),MIC (Ps. aeruginosa; [6]),MIC (K.pneumoniae; 20 h),MIC (K. oxytoca; 20 h)
"COC(=O)OC[C@@H]1[C@H](NC(=O)/C(=N\OCC(=O)O)c2csc(N)n2)C(=O)N1C(=O)NS(=O)(=O)N1CCN(NC(=O)c2cc(=O)c(O)c[nH]2)C1=O (racemic) [Compound A, cis-(±)-3-[2-(2-Amino-4-thiazolyl)-(Z)-2-(carboxy-methoxyimino)acetamido]-1-[(5-hydroxy-4-pyridon-2-yl)carbonylamino-1-(2-imidazolidone-3-yl)sulfonylaminocarbonyl]-4-[(methoxycarbonyl)-oxymethyl]-2-azetidinone, dipotassium salt]",1 µg/mL,0.06 µg/mL,≤ 0.015 µg/mL,≤ 0.015 µg/mL,≤ 0.015 µg/mL,4 µg/mL,1 µg/mL,4 µg/mL,–,–
"CC1C(NC(=O)C(=NOC(C)(C)C(=O)O)c2csc(N)n2)C(=O)N1S(=O)(=O)O (stereo not shown) [Compound B, 2-[[[1-(2-amino-4-thiazolyl)-2-[(2-methyl-4-oxo-1-sulfo-3-azetidinyl)amino]-2-oxoethylidene]amino]oxy]-2-methylpropanoic acid]",–,–,0.03 µg/mL,0.06 µg/mL,0.06 µg/mL,8 µg/mL,8 µg/mL,2 µg/mL,0.03 µg/mL,0.03 µg/mL
